Data published in patent US10550130B2, “Benzo-thiazolo-imidazole compounds and uses thereof” (KING SAUD UNIVERSITY, priority 2015, dated 2020).

Key:
[1] = system: Numb; assay: Immunofluorescence of Numb in MDA-MB-231 breast cancer cells; type: cell-based; settings: MDA-MB-231 cells; 0.01, 0.1, 1 or 10 μM
Procedure: (§1) MDA-MB-231 breast cancer cells were treated either with vehicle (control) or with 0.01 μM, 0.1 μM, 1 μM or 10 μM final concentration of doxorubicin, taxotere or KSA-101696. Then, the cells were cytospun to glass slides by centrifugation at 800 rpm for 3 min. Slides were then air-dried overnight and 4% formaldehyde fixed for 10 min. For staining, the cell membrane was permeabilized with 0.5% triton-X (Sigma) followed by overnight incubation with primary antibodies (anti-Numb, Abcam) and (anti-intracellular Notch-1, Cell Signalling) at 1:100. Cells were washed and stained with AlexaFluor goat anti-rabbit IgG 488 (Invitrogenat) 1:400 for 30 minutes. 300 nM DAPI (Invitrogen, Carlsbad, Calif., USA) was added for 10 minutes to counterstain the nuclei. Slides were mounted and immunofluorescence was visualized using BD Pathway 855 microscope.
(§2) Numb exerts its functional role on cell fate decisions by antagonizing Notch signaling activities. The molecular mechanisms underlying this relationship appear to rely on the ubiquitination of the membrane bound Notch-1 receptor and the subsequent degradation of its NICD (Notch intracellular domain) following receptor activation.

[2] = system: normal cells MCF-10 A, HSFN1 (human foreskin cells) and BM4 (bone marrow derived mesenchymal stem cells); assay: Annexin V binding by flow cytometry (apoptosis) in normal cells; type: cell-based; settings: 20 μM, 48 h
Procedure: It is known that loss of phospholipid asymmetry of the plasma membrane is an early event of apoptosis. The annexin V binds to negatively charged phospholipids, like phosphatidylserine. During apoptosis, the cells react to annexin V once chromatin condenses but before the plasma membrane loses its ability to exclude propidium iodide (PI).
Annexin-V staining was performed by using Vybrant Apoptosis Assay Kit #2 (Molecular Probes) following the manufacturer's recommendations. Annexin-V stained cells were analyzed by flow cytometry, measuring the fluorescence emission between 515 nm to 545 nm.
To evaluate the selective-apoptotic effect of the compound in cancer cells but not normal cells, the cancer cell lines SKBR3, MDA-MB-468, and normal cells MCF-10 A, HSFN1 (human foreskin cells) and BM4 (bone marrow derived mesenchymal stem cells) were used. […] Upon treatment of cells with 20 μM for 48 h, cells were stained with Annexin-V and PI and binding of Annexin-V and PI to the cells was determined by flow cytometry.

[3] = system: SP cells of BT-474; assay: Mammosphere formation assay; type: cell-based; settings: 5 μM, 7 days old mammospheres
Procedure: (§3) Cell were harvested and counted by using trypan blue to exclude the dead cells. Cells cultured in suspension (1000 cells/100 μL) in serum-free mammary epithelium basal medium, supplemented with B27 supplement 1:50; (GIBCO), 20 ng/mL EGF (epidermal growth factor; Preprotech), 5 μg/mL insulin (Sigma), 1% Antibiotic-Antimycotic (GIBCO) and 0.5 μg/ml hydrocortisone (Sigma), as described previously (Dontu et al.). Mammospheres were allowed to grow for 7 days, then treated for 72 h by either control media (0.1% DMSO) or media containing different concentrations of the compound. Mammospheres were counted on a Leitz Labovert inverted Microscope. Mammosphere size was measured and a picture was taken on a Evos transmitted light microscope.
(§4) It is known that one of the properties of stem/progenitor cells is their ability to survive under anchorage-independent conditions and generate mammospheres, which are composed of a small number of stem cells. Given that CSCs generally make up for a small minority of the cells within cancer cell populations, the dye DyeCycle Violet was used to isolate SP cells (side population cells; the side population is enriched for stem/progenitor cells), through a BD FACSAria™ cell sorter. Subsequently, the isolated SP cells were used in a Mammosphere Formation Assay. SP cells of MCF-7 and BT-474 formed more mammospheres than non-SP cells (see FIG. 4A).
(§5) Treatment of 7 days old mammospheres of both cell lines with 5 μM of KSA-101696 decreased the number of mammospheres formed by 50% compared to DMSO treatment (FIG. 4A).

[4] = system: SP cells of MCF-7; assay: Mammosphere formation assay; type: cell-based
Procedure: as §3, §4, §5

[5] = system: intracellular Notch-1; assay: Immunofluorescence of intracellular Notch-1 in MDA-MB-231 breast cancer cells; type: cell-based; settings: MDA-MB-231 cells; FIGS. 1B and 1C
Procedure: as §1, §2

[6] = system: MDA-MB-231 cells; assay: Migration assay; type: cell-based; settings: Homo sapiens, 2.5 μM to 20 μM, read-out: IC50, migration capacity
Procedure: To assess the metastatic potential of tumor cells, their migration and invasion was evaluated using the 24-well BD BioCoat Matrigel Invasion Chamber as per the manufacturer guideline (BD Bioscience). In brief, 750 μl of migration buffer (serum-free media with or without treatment) or chemoattractants (serum-containing media) were added to the lower wells. Cells were washed three times in migration media and 500 μl (1-2×10^5) of cells were added to the upper wells separated by an 8 micron pore size PET membrane with a thin layer of matrigel basement membrane matrix (for invasion) or without (for migration). The membranes were stained with Diff Quick stain (Fisher Scientific) after removing the non-migrated cells from the top of the membrane with Q-tips. After air drying, the membranes were cut and mounted on slides with oil and cells that had migrated to the underside of the filter were counted using a light microscope (Zeiss Axio Observer) in five randomly selected fields (magnification: 40×). Each assay was performed in triplicate and repeated at least five times. The results were expressed as mean±SD of migrating cells per field counted (FIGS. 6A-6B).

[7] = Determination of LD50 value
Procedure: Swiss Webster Albino mice were housed in groups of 2 or 4 in elevated steel wire-mesh cages in a controlled room maintained at a temperature of 22±2° C., relative humidity of 50±10% and a 12 h light-dark cycle. Rodent diet chow (feed) provided by Grain Silos Flour Mills Organization, Riyadh, Saudi Arabia, and tap water for drinking were made available ad lib.
Male mice were divided into various groups (n=10 animals per group). Each group was administered a different dose of the respective compound via the intraperitoneal (i.p.) route. The dose range used was 100-5000 mg/kg.
During the observation periods there was a continuous record of any behavioral changes and clinical symptoms that caused by effects on the central and autonomic nervous systems, the respiratory and the cardiovascular systems or any other action on the gastrointestinal tract, the renal systems, eye, skin, skeletal muscles etc.
During the 72 hour observation period the number of animals that died in every group was recorded. The percentage of death calculated and converted to probits to calculate the LD50 value for each compound in mg/kg. The LD50 value reported in this study provided compounds in their liquid form in the provided concentrations.

COc1ccc(-c2csc3nc4ccccc4n23)cc1 [KSA-101696, 3-(4-methoxyphenyl)benzo[4,5]imidazo[2,1-b]thiazole]
Numb expression (immunofluorescence microscopy) [1]: induced Numb | apoptosis (Annexin-V and PI) in normal cells [2]: little apoptotic effect | decrease of number of mammospheres formed compared to DMSO [3]: 50% | decrease of number of mammospheres formed compared to DMSO ([4]; MCF-7, 5 μM, 7 days old mammospheres): 50% | size of treated mammospheres ([4]; cell line not specified (FIG. 4B)): reduction in the size | concentration inhibiting intracellular Notch-1 by activating Numb expression [5]: 0.625 µM | IC50 [6]: ~7.5 µM | Therapeutic ratio = LD50/ED50 ([7]; intraperitoneal): 40 | LD50 at 72 h ([7]; male, Swiss Webster Albino, mouse, in vivo, ip): 2000 mg/kg
